Source: ChEMBL document CHEMBL1149414, “Vitamin D receptor: ligand recognition and allosteric network” (J Med Chem, 2006)

Tests used:
[1] = biological target: T1, Vitamin D3 receptor (Homo sapiens, UniProt P11473); assay: Inhibition of transactivation of human VDR in COS7 cells; format: functional, cell-based, COS-7
T1 sequence (P11473 whole entry): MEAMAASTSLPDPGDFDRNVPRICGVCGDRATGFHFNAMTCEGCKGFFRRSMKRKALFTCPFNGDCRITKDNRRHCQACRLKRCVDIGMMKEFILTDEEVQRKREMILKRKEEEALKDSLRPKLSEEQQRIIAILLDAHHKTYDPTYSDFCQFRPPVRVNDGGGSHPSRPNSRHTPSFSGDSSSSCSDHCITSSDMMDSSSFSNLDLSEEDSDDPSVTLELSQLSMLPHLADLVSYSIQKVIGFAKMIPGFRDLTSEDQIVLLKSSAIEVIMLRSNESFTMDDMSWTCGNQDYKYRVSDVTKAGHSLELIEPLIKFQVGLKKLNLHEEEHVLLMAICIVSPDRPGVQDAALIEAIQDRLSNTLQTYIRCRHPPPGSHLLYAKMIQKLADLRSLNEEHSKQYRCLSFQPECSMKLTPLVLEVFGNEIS

[2] = biological target: T1, Vitamin D3 receptor; assay: Antagonistic activity against human VDR in presence of 1,25(OH)2D3; format: functional

SMILES: C[C@H](/C=C/C[C@H](O)C12CC3CC(CC(C3)C1)C2)[C@H]1CC[C@H]2/C(=C/C=C3C[C@@H](O)C[C@H](O)C3)CCC[C@]12C
- IC50 [1]: 0.4 µM
- IC50 [2]: 0.05 µM

SMILES: C=C1C[C@H](C[C@@H](C)[C@H]2CC[C@H]3/C(=C/C=C4C[C@@H](O)C(=C)[C@H](O)C4)CCC[C@]23C)OC1=O
- IC50 [1]: 0.3 µM
